Laboratory results taken from ChEMBL document CHEMBL4725449, “Brain Penetrable Inhibitors of Ceramide Galactosyltransferase for the Treatment of Lysosomal Storage Disorders” (ACS Med Chem Lett, 2020).

Experiments:
[1] = target: T1, UDP-glucuronosyltransferase 2B17 (Homo sapiens, UniProt O75795); assay: Inhibition of UGT2B17 (unknown origin); format: ADME
T1 sequence (O75795 whole entry): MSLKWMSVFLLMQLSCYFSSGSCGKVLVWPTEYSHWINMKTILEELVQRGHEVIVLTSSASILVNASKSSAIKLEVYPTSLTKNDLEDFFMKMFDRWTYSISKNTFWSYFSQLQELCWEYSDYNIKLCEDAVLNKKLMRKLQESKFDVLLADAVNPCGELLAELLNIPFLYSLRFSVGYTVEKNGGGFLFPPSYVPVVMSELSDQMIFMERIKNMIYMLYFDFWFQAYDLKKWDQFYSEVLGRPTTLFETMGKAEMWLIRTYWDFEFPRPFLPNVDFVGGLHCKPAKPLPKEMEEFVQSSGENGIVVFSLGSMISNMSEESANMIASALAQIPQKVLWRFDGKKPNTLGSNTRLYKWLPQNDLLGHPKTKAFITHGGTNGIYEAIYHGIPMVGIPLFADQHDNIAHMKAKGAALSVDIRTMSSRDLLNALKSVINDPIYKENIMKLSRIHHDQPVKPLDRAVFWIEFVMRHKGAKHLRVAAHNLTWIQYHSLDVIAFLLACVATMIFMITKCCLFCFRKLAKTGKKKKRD

[2] = target: T2, 2-hydroxyacylsphingosine 1-beta-galactosyltransferase (Homo sapiens, UniProt Q16880); assay: Inhibition of UGT8 in human OE19 cells assessed as redcution in SFT accumulation measured after 72 hrs by LC-MS/MS analysis; format: cell-based
T2 sequence (Q16880 whole entry): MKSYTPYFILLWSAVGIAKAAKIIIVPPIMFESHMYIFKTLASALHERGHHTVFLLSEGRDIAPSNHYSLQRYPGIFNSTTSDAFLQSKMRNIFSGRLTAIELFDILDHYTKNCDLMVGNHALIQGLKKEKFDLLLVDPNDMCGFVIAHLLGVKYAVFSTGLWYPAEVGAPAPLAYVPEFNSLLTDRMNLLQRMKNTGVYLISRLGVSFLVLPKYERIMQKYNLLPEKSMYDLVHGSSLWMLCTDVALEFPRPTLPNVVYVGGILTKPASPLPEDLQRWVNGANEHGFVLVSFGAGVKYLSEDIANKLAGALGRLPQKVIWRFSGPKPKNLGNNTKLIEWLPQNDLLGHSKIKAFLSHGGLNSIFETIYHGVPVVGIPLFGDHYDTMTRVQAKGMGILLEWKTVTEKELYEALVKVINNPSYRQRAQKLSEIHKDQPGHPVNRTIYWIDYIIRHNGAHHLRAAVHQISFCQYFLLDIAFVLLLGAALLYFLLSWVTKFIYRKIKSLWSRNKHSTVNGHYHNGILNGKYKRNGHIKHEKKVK

[3] = target: T2, 2-hydroxyacylsphingosine 1-beta-galactosyltransferase; assay: Inhibition of UGT8 in human OE19 cells assessed as redcution in GalCer accumulation measured after 72 hrs by LC-MS/MS analysis; format: cell-based
[4] = target: T3, UDP-glucuronosyltransferase 1A6 (Homo sapiens, UniProt P19224); assay: Inhibition of UGT1A6 (unknown origin); format: ADME
T3 sequence (P19224 whole entry): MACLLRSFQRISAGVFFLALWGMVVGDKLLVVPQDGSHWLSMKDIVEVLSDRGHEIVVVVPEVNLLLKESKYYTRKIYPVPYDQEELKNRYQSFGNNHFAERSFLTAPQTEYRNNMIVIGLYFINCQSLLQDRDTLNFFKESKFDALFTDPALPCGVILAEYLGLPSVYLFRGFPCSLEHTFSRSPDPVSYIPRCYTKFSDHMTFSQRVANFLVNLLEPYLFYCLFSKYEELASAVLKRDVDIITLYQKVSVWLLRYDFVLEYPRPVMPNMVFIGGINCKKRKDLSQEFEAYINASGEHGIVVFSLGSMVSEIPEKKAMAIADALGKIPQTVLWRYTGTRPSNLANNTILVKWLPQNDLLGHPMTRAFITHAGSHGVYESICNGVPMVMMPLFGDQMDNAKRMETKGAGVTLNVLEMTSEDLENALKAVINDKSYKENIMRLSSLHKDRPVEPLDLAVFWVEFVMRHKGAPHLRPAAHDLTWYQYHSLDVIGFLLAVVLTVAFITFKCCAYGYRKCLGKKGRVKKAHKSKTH

[5] = Intrinsic clearance in human liver microsomes; format: ADME, Microsome; details: read-out: CLH
[6] = Distribution coefficient, log D of the compound; format: physicochemical; details: octanol/water
[7] = Clearance in Sprague-Dawley rat at 1 mg/kg, iv; format: ADME, organism-based; details: in vivo
[8] = Volume of distribution at steady state in Sprague-Dawley rat at 1 mg/kg, iv; format: ADME, organism-based; details: in vivo, read-out: Vdss
[9] = Clearance in C57BL/6 mouse at 1 mg/kg, iv; format: ADME, organism-based; details: in vivo
[10] = Volume of distribution at steady state in C57BL/6 mouse at 1 mg/kg, iv; format: ADME, organism-based; details: in vivo, read-out: Vdss
[11] = Tmax in C57BL/6 mouse at 3 mg/kg, po; format: ADME, organism-based; details: in vivo
[12] = Oral bioavailability in C57BL/6 mouse at 3 mg/kg; format: ADME, organism-based; details: in vivo
[13] = (§1) In vivo inhibition of GalCer de novo synthesis in po dosed adult C57BL/6 mouse kidney assessed as reduction in [13C] galactose incorporation into GalCer treated with compound for 1 hr prior to intraperitoneal injection of [13C] galactose measured after 5 hrs of compound administration; format: functional
Mus musculus [14] = assay: as §1; format: functional
[15] = (§2) In vivo inhibition of SFT de novo synthesis in po dosed adult C57BL/6 mouse kidney assessed as reduction in [13C] galactose incorporation into SFT treated with compound for 1 hr prior to intraperitoneal injection of [13C] galactose measured after 5 hrs of compound administration; format: functional
Mus musculus [16] = assay: as §2; format: functional
[17] = (§3) In vivo inhibition of GalCer de novo synthesis in adult C57BL/6 mouse kidney assessed as reduction in [13C] galactose incorporation into GalCer at 30 mg/kg, po via gavage treated with compound for 1 hr prior to intraperitoneal injection of [13C] galactose measured after 5 hrs of compound administration relative to control; format: functional
[18] = as §3, with “SFT” for “GalCer”, “0.3” for “30”; format: functional
[19] = as §3, with “SFT” for “GalCer”, “3” for “30”; format: functional
[20] = as §3, with “SFT” for “GalCer”; format: functional
[21] = In vivo inhibition of GalCer de novo synthesis in PN14 to PN21 days C57BL/6 mouse brain assessed as reduction in [13C] galactose incorporation into GalCer at 30 mg/kg, po bid for 2 days and single dose at day 3 treated 1 hr prior to intraperitoneal injection of [13C] galactose measured after 5 hrs of last dose relative to control; format: functional; details: C57BL/6, 72 h, time 3 day
[22] = In vivo inhibition of SFT de novo synthesis in po dosed PN14 to PN21 days C57BL/6 mouse brain assessed as reduction in [13C] galactose incorporation into SFT administered twice for 2 days and single dose at day 3 treated 1 hr prior to intraperitoneal injection of [13C] galactose measured after 5 hrs of last dose; format: functional; details: C57BL/6, 72 h, time 3 day

IC50 [1]: > 10000 nM | IC50 [2]: 0.2 nM | IC50 [3]: 0.2 nM | IC50 [4]: > 10000 nM | microsomal CLint [5]: 73 µL/min/mg | logD [6]: 5.09 | clearance [7]: 6.52 mL/min/kg | Vd [8]: 1.52 L/kg | clearance [9]: 24.7 mL/min/kg | Vd [10]: 1.64 L/kg | Tmax [11]: 30 min | bioavailability [12]: 34%
SMILES: CNC(=O)c1csc2c(C(F)(F)F)cc(N3CCC(OC(=O)N[C@@H](C)COC(F)(F)F)CC3)nc12
ED50 [13]: 1 mg/kg | inhibition (Mus musculus [14]): Dose-dependent effect | ED50 [15]: 1 mg/kg | inhibition (Mus musculus [16]): Dose-dependent effect | inhibition in vivo at 30 mg/kg [17]: 90% | inhibition in vivo at 0.3 mg/kg [18]: 29% | inhibition in vivo at 3 mg/kg [19]: 85% | inhibition in vivo at 30 mg/kg [20]: 99% | inhibition in vivo at 30 mg/kg [21]: 94% | ED50 [22]: < 3 mg/kg
